Source: patent US12486218B2, “Compounds advantageous in the treatment of central nervous system diseases and disorders” (AurimMed Pharma, Inc., priority 2008, dated 2025)

Experiments:
[1] = tested on: rat dopaminergic N27 cells; experiment: N27 protection assay against oxidative stress (H2O2 or MPP+; MTT and LDH); format: cell-based; conditions: drug 24 hours before 200 μM H2O2 or 640 μM MPP+
How it was run: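 Protection mode: N27 cells pretreated with drug at various concentrations for 24 hours, then exposed to 200 μM H2O2 or 640 μM MPP+. Recovery mode: cells damaged by H2O2 first, drug applied afterwards. Viability measured by MTT reduction and cytotoxicity by released LDH.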

[2] = tested on: identified target proteins; experiment: Protein profiling using Mass spectrometry after compound BX treatment; conditions: protein amount, preliminary
Source text: The data presented below in Tables 10-12 illustrate various studies aimed at identifying the targets that compound BX acts upon. Table 10 illustrates preliminary protein profiling data using Mass spectrometry to identify up/down-regulation by compound BX treatment among numerous identified target proteins. In the results shown in Table 10, superoxide dismutase (SOD) protein amount is increased almost two-fold. This is a significant increase in SOD. SOD protein, which is an enzyme that alternately catalyzes the dismutation (or partitioning) of the superoxide (O2^−) radical into either ordinary molecular oxygen (O2) or hydrogen peroxide (H2O2), is strongly associated with amyotrophic lateral sclerosis (ALS). Mutations in the first SOD enzyme (SOD1) can cause familial ALS. Onset of ALS is strongly associated with oxidative stress in the neural tissue of affected individuals.

rats [3] = experiment: Minimal motor impairment (MID50), rats p.o.; format: in vivo
rats [4] = experiment: Preliminary Hippocampal Kindling Screening in rats (i.p.); format: in vivo; conditions: at 100 mg/kg
rats [5] = experiment: Hippocampal Kindled Rats model; format: in vivo; conditions: Rattus norvegicus
C3A hepatocyte cells = experiment: ACTIVTox LDH release assay; format: cell-based
Method: Compounds A, I, H, and F were tested by Stem Cell Innovations, Inc. (Houston, TX) in their ACTIVTox® Human Liver Cell-based assays (using C3A hepatocyte cells). Specifically, the compounds were tested in the LDH release assay, which determines the release of Lactate DeHydrogenase (an indicator of cell death) at various concentrations of test compound.
A concentration of 100 µM of test compound is a much higher level of exposure to liver cells than would ever be expected under physiological conditions. Therefore, using 100 μM as a standard test concentration (for comparative purposes), the ratio of the absorbance (which measures the level of LDH release) resulting from the presence of the test compound versus the negative control is a value known as the “average (or mean) fold control” (Average Fold Control=Average of Absorbance/Average of Negative Control).

kainate (KA) receptors = experiment: Electrophysiology, kainate receptor currents; format: cell-based; conditions: at 100 μM, holding potential −70 mV
Source text: The mechanisms of action of many currently marketed anticonvulsant drugs are not fully understood. Although numerous molecular targets exist wherein anticonvulsants may exert an effect, the final common pathway appears to be through modulation of voltage-gated and/or neurotransmitter-gated ion channels. Thus, the common link among the various proposed mechanisms involves the ability of an anticonvulsant to modulate ion channel function. Presently, a number of prototype anticonvulsants are thought to exert their action (at least in part) by reducing sustained, high-frequency repetitive firing of action potentials by modulating voltage-dependent sodium (Na+) channels. The effect of promising candidate substances on voltage-gated Na+ channels can be assessed using state-of-the-art electrophysiological techniques.

rats [6] = experiment: Lamotrigine-resistant amygdala-kindled rat model (LRM); format: in vivo
Source text: Resistance to Lamotrigine can be induced in rats by treating them with the drug during the kindling acquisition phase (i.e., during kindling development in the epileptogenesis phase). Subsequently, the fully kindled Lamotrigine-refractory rats (i.e., now fully manifesting seizures) are also resistant (cross-tolerant) to carbamazepine, phenytoin, and topiramate, but not to valproate (or diazepam or the clinical Phase III drug candidate, retigabine).
The Lamotrigine-resistant amygdala-kindled rat model (LRM) may thus serve as an early model of drug-resistant (i.e., pharmacoresistant, refractory) epilepsy to identify novel AEDs for further evaluation in more extensive model systems, including the phenytoin-resistant kindled rat
The LRM thus serves to identify novel broad-spectrum AEDs which may be effective in the treatment of drug-resistant epilepsies. Up to 35% of epilepsy patients continue to suffer from uncontrolled seizures because of their drug-resistant epilepsies.

CYP-450 3A4 = CYP-450 3A4 (Homo sapiens, UniProt P08684); experiment: In vitro human CYP-450 study, 3A4; format: in vitro ADME; conditions: human enzyme
Chain of CYP-450 3A4 (P08684 whole entry): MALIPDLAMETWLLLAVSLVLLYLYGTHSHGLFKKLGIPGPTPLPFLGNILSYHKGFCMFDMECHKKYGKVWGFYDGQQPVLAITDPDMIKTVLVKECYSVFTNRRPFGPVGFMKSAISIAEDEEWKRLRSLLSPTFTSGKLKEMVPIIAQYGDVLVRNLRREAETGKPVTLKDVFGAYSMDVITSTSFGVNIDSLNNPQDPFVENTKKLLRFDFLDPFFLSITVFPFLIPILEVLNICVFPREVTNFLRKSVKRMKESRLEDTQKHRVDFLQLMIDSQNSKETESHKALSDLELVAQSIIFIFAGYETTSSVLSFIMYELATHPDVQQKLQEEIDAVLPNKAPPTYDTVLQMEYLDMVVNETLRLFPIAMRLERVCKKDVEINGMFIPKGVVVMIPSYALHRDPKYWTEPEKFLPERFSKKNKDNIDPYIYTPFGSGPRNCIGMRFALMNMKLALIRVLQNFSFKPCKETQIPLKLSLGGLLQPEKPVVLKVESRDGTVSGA
Source text: (§1) On the other hand, it is an inhibitor for 2C19, 2D6, 2A6 and 2C9.

CYP-450 2D6 = CYP-450 2D6 (Homo sapiens, UniProt P10635); experiment: In vitro human CYP-450 study, 2D6; format: in vitro ADME; conditions: human enzyme
Chain of CYP-450 2D6 (P10635 whole entry): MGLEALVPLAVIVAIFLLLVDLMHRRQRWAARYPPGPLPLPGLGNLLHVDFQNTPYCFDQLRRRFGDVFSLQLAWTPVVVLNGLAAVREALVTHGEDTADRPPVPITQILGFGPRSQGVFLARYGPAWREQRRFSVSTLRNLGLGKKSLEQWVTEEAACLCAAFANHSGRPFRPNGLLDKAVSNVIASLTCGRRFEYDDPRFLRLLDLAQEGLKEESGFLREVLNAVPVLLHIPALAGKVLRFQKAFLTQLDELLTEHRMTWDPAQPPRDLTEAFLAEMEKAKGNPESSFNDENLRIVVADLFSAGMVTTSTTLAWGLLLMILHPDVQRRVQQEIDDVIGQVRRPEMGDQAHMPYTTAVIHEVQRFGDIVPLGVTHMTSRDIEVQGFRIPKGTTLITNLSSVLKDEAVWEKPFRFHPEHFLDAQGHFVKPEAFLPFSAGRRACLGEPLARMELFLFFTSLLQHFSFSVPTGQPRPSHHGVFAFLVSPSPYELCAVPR
Source text: as §1

SMILES	neuroprotective effect against H2O2 and MPP+ oxidative stresses (MTT and LDH assays) [1]	Compound Ratio, 14-3-3 Protein Gamma (P61983) [2]	Compound Ratio, Elongation factor 1-alpha 1 (P62630) [2]	Compound Ratio, Eukaryotic translation initiation factor 5A-1 (Q3T1J1) [2]	Compound Ratio, Glycine tRNA ligase (G3V7G8) [2]	Compound Ratio, Heat Shock Protein HSP 90-alpha (P82995) [2]	Compound Ratio, Heat shock 70 kDA protein (F1LRV4) [2]	Compound Ratio, Hypoxia up-regulated protein (Q63617) [2]	Compound Ratio, Malate Dehydrogenase (P04636) [2]	Compound Ratio, Proteasome subunit alpha type-2 (P17220) [2]	Compound Ratio, Superoxide dismutase [CU—Zn] (P07632) [2]	MID50 (rats [3]) [mg/kg]	seizure score, Preliminary Hippocampal Kindling Screening (rats [4])	ED50 (rats [5]) [mg/kg]	LDH release, mean fold control (C3A hepatocyte cells; at 100 μM, C3A hepatocyte cells, value below 1.75 = no cyto- or hepatotoxic activity)	cyto- or hepatotoxicity, ACTIVTox data (C3A hepatocyte cells; at physiologically relevant concentrations (i.e., <100 µM))	kainate (KA) receptor response (kainate (KA) receptors)	activity in the LRM (rats [6])	inhibition of CYP-450 3A4 (CYP-450 3A4)	inhibition of CYP-450 2D6 (CYP-450 2D6)
C[C@H](CC(N)=O)c1ccc(OC(F)(F)F)cc1 (single isomer, unassigned) [Compound BX, R-(−)-3-(4-Trifluoromethoxy-phenyl)butyramide]	potent dose-dependent neuroprotective effects	1.15	0.59	1.64	0.67	0.77	0.73	0.58	0.68	0.35	1.72									
CC(CC(N)=O)c1ccc(OC(F)(F)F)cc1 (racemic) [Compound H, 3-[4-(trifluoromethoxy)-phenyl]butyramide]												>500	zero	61	1.32	not cyto- or hepatotoxic	99±1 % of control	active	either no or only a remote possibility of inhibiting	inhibitor
